Legend:
ROCK2 = ROCK2 (Homo sapiens, UniProt O75116); assay: Measurement of inhibitory activity against ROCK2 (ADP-Glo, S6K substrate); type: biochemical; settings: read-out: ROCK2 (IC50 class)
Excerpt: ROCK2 was capable of phosphorylating a substrate of polypeptide S6K (KRRRLASLR) by converting ATP to ADP. An ADP-Glo™ reagent was adopted to terminate this reaction and consume the remaining ATP. Moreover, a kinase detection reagent was introduced to ensure that ATP was further converted into a luminescent signal by an Ultra-Glo™ luciferase while convening ADP into ATP, allowing the kinase activity to be positively correlated with the intensity of the luminescent signal.
The inhibitory activity against ROCK2 was determined as follows.
(1) A detection buffer containing 40 mM Tris (pH 7.5), 20 mM MgCl2, 0.1% BSA(w/v) and 50 μM DTT was prepared.
(2) 12 μL of 2.5×0.1 μg/mL ROCK2 solution was added to a 96-well PCR plate.
(3) The 96-well PCR plate was added with 6 μL of a 6× compound solution and pre-incubated at 25° C. for 10 min.
(4) Then the 96-well PCR plate was further added with 12 μL of a mixed solution of a 2.5×37.5 μg/mL S6K substrate solution and a 12.5 μM ATP solution, and incubated at 30° C. for 60 min.
(5) 25 μL of the reaction mixture was transferred to a new 96-well PCR plate, mixed with 25 μL of the ADP-Glo™ reagent uniformly and incubated at 25° C. for 40 min to terminate the reaction.
(6) After the reaction was terminated, 40 μL of the reaction mixture was transferred to another 96-well PCR plate, mixed with 40 μL of the kinase detection reagent uniformly and incubated at 25° C. for 40 min.
(7) The luminescence signal was recorded for the calculation of the inhibitory rate.
The inhibitory activity of the above-prepared compounds against the ROCK2 was measured according to the above process, and the results were shown in Table 1, in which the compounds were ranked according to the IC50 value. Specifically, “+” indicated an IC50 value greater than 500 nM; “++” indicated an IC50 value less than 500 nM and greater than 100 nM; and “+++” indicated an IC50 value less than 100 nM.

[1] = system: phosphorylation of the myosin light chain (T18/S19) of smooth muscle cells A7r5; assay: Detection of myosin light chain phosphorylation by In-Cell Western Blotting; type: cell-based; settings: rat smooth muscle cells A7r5, 1 h incubation in serum-free medium; read-out: A7r5 (IC50 class, inhibition of myosin light chain phosphorylation)
Description: ROCK2 was capable of altering the cytoskeleton by phosphorylating two amino acid sites (T18 and S19) on the myosin light chain. Smooth muscle cells A7r5 of rats were selected, inoculated into a 96 well black plate with a transparent bottom and cultured with DMEM containing 10% FBS. After cultured overnight, the cells were treated by serum starvation for 4 h and then incubated with respective compounds in serum-free medium for 1 h. The phosphorylation level of the myosin light chain was detected by In-Cell Western Blotting using a phspho-MLC-T18/S19-specific antibody and a secondary detection antibody. The untreated cells were used as positive control; the cells without undergoing primary antibody incubation were used as negative control; and total intracellular protein was used as an internal reference. The results were fitted by a non-linear regression curve with varying slope using GraphPad Prism 5.01 software to determine an IC50 value.
The detection of the inhibitory activity of the above-prepared compounds against the phosphorylation of the myosin light chain of smooth muscle cells A7r5 was performed according to the above process. The results were shown in Table 2, where the compounds were ranked according to the IC50 value.

hypertensive model rats = settings: cited from earlier work
[2] = system: New Zealand rabbits with normal intraocular pressure; assay: Animal experiment, normal intraocular pressure model; type: in vivo; settings: normal IOP rabbits, 50 μL to the right eye, IOP at 0-10 h
Description: 24 male New Zealand rabbits were averagely divided into 4 groups, and were randomly assigned to respective groups using a computer randomized algorithm involving weight. From […] before the experiment, all rabbits were required to be trained to adapt to the operation of intraocular pressure (IOP) measurement, and the training was performed 3 times a day with an interval of about 3 h. The intraocular pressure was measured using a TonoVet tonometer, specifically, individual animals were fixed and the eye to be tested was placed at a position perpendicular to the TonoVet tonometer. The IOP should be measured at least 3 times in each operation until the reading became stable. The results from the last three stable measurements (±3 mmHg) were recorded and averaged to be used as the final IOP value. Respective compounds were weighed and dissolved with normal saline to the desired concentration. At the beginning of the experiment, individual compounds of the invention, reference compound K115 or negative control solvent (50 μL) were administered to the right eye of each animal, and the left eye of each animal was treated by normal saline. The IOP was measured at time points Pre (0 h), 1 h, 2 h, 4 h, 6 h, 8 h and 10 h after the administration of drugs, and the data obtained at respective time points was analyzed by student-t test. The curve of IOP over time was analyzed using the ANOVA test, where a P value of less than 0.05 will be considered to be of statistical significance and the data was expressed by mean±standard deviation.

[3] = system: New Zealand rabbits with high intraocular pressure; assay: Animal experiment, high intraocular pressure monocular model; type: in vivo; settings: high IOP rabbits, 50 μL per eye three times a day (0, 3rd, 6th h), IOP at 0-8 h
Description: 10 male New Zealand rabbits were averagely divided into 2 groups and were randomly assigned to respective groups using a computer randomized algorithm involving weight. From 3 days to 1 day before the experiment, all rabbits were required to be trained to adapt to the operation of intraocular pressure (IOP) measurement, and the training was performed 3 times a day with an interval of about 3 h. The intraocular pressure was measured using a TonoVet tonometer, specifically, individual animals were fixed and the eye to be tested was placed at a position perpendicular to the TonoVet tonometer. The IOP should be measured at least 3 times in each operation until the reading became stable. The results from the last three stable measurements (±3 mmHg) were recorded and averaged to be used as the final IOP value. Respective compounds were weighed and dissolved with normal saline to the desired concentration. Before the induction of high intraocular pressure, the intraocular pressure values of both eyes were measured and used as the basic intraocular pressure value. […] The IOP was measured respectively 0, 1, 2, 3, 4, 6 and 8 h after the injection. The results obtained at individual time points were analyzed by student-t test, and the variation curve of IOP over time was analyzed using ANOVA test. […]

ROCK2, sequence (O75116 whole entry): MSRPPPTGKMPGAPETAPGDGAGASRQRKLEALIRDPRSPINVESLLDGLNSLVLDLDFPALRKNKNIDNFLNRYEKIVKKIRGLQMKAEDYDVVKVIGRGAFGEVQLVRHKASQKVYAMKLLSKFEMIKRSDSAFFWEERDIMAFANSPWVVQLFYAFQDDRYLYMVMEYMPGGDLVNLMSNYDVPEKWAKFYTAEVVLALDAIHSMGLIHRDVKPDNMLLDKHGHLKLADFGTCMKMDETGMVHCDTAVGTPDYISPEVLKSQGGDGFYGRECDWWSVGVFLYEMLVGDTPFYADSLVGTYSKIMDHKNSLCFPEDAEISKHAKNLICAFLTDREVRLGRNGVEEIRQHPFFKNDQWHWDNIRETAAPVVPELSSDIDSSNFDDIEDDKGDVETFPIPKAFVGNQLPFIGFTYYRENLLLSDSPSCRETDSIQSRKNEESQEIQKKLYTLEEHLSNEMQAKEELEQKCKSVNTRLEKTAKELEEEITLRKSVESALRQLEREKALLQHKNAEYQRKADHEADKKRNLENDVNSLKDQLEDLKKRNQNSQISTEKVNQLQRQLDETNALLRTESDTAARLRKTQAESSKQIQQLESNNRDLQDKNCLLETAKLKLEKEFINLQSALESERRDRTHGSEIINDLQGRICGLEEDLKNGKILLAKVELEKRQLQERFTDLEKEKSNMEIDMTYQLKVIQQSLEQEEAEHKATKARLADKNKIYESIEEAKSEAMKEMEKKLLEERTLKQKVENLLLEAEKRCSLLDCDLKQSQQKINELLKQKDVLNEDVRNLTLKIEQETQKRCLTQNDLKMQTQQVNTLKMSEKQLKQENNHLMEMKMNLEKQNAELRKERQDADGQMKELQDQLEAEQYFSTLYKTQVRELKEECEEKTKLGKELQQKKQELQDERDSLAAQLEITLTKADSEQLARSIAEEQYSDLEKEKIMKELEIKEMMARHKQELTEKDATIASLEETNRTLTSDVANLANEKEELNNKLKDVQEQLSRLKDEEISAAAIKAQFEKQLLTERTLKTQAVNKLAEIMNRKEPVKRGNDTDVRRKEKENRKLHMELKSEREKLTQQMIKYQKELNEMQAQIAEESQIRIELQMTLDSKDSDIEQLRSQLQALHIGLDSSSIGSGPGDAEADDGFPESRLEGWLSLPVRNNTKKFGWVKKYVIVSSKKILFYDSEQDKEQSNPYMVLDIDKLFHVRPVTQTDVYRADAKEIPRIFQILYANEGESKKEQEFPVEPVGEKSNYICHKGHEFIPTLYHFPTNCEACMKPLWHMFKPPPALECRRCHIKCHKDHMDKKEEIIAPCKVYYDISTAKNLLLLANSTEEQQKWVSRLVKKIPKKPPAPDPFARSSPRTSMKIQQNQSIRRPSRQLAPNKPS

SMILES	IC50 (ROCK2) [nM]	IC50 [1] [nM]	further results
Cc1ccc(C(=O)OCc2ccc([C@@H](CN)NC(=O)c3ccc4cnccc4c3)cc2)c(C)c1 [Compound 4, (S)-4-(2-amino-1-(isoquinoline-6-formamido)ethyl)benzyl 2,4-dimethylbenzoate]	100 to 500	> 1000	
C[C@@H](N)[C@H]1CC[C@H](C(=O)Nc2ccncc2)CC1 [Compound Y-27632]			blood pressure of control rats (hypertensive model rats; control rats): fails to show significant effects on the blood pressure; blood pressure of hypertensive model rats (hypertensive model rats; spontaneous, renal and deoxycorticosterone acetate-induced hypertension): significantly lowering the blood pressure
NC[C@@H](NC(=O)c1ccc2cnccc2c1)c1cccc(Br)c1 [Compound 2, (S)—N-(2-amino-1-(3-bromophenyl)ethyl)isoquinoline-6-carboxamide]	< 100	< 250	
CN(C)C[C@@H](NC(=O)c1ccc2cnccc2c1)c1cccc(Cl)c1 [Compound 16, N—((S)-2-(dimethylamino)-1-(3-chlorophenyl)ethyl)isoquinoline-6-carboxamide]		250 to 1000	
CN1CC[C@@H]([C@@H](NC(=O)c2ccc3cnccc3c2)c2ccccc2)C1 [Compound 12, N—((R)—((R)-1-methylpyrrolidin-3-yl)(phenyl)methyl)isoquinoline-6-carboxamide]	< 100		
CN1CC[C@@H]([C@H](NC(=O)c2ccc3cnccc3c2)c2ccccc2)C1 [Compound 13, N—((S)—((R)-1-methylpyrrolidin-3-yl)(phenyl)methyl)isoquinoline-6-carboxamide]	< 100	250 to 1000	
CN(C)CCC(NC(=O)c1ccc2cnccc2c1)c1ccccc1 (stereo not shown) [Compound 8, N-(3-(dimethylamino)-1-phenyl-propyl)isoquinoline-6-formamide]	< 100	> 1000	
CCOC(=O)c1cc(-c2cccc(C(CCN)NC(=O)c3ccc4cnccc4c3)c2)cs1 (stereo not shown) [Compound 7, ethyl 4-(3-(3-amino-1-(isoquinoline-6-formamide)propyl)phenyl)thiophene-2-carboxylate]	< 100	250 to 1000	
O=C(NC(c1ccccc1)C1CNC1)c1ccc2cnccc2c1 (stereo not shown) [Compound 9, N-(azetidin-3-yl-benzyl)isoquinoline-6-carboxamide]	< 100	250 to 1000	
O=C(N[C@@H](c1ccccc1)[C@H]1CCNC1)c1ccc2cnccc2c1 [Compound 14b, N—((R)-phenyl-((S)-pyrrolidin-3-yl)methyl)isoquinoline-6-carboxamide]	< 100		
O=C(N[C@@H](c1ccccc1)[C@@H]1CCNC1)c1ccc2cnccc2c1 [Compound 11b, N—((R)-phenyl-((R)-pyrrolidin-3-yl)methyl)isoquinoline-6-carboxamide]	< 100		
COc1cccc([C@@H](CN(C)C)NC(=O)c2ccc3cnccc3c2)c1 [Compound 15, N—((S)-2-(dimethylamino)-1-(3-methoxyphenyl)ethyl)isoquinoline-6-carboxamide]	< 100	250 to 1000	
NC[C@@H](NC(=O)c1ccc2cnccc2c1)c1ccc(CO)cc1 [Compound 3, (S)—N-(2-amino-1-(4-(hydroxymethyl)phenyl)ethyl)isoquinoline-6-formamide]	100 to 500		
NC[C@@H](NC(=O)c1ccc2cnccc2c1)c1ccccc1 [Compound 1, N—((S)-2-amino-1-phenyl-ethyl)isoquinoline-6-carboxamide]	< 100	250 to 1000	
O=C(N[C@H](c1ccccc1)[C@H]1CCNC1)c1ccc2cnccc2c1 [Compound 14a, N—((S)-phenyl-((S)-pyrrolidin-3-yl)methyl)isoquinoline-6-carboxamide]	100 to 500		
NCCC(NC(=O)c1ccc2cnccc2c1)c1cccc(Cl)c1 (stereo not shown) [Compound 6, N-(3-amino-1-(3-chlorophenyl)propyl)isoquinoline-6-carboxamide]	< 100	< 250	
CN(C)C[C@@H](NC(=O)c1ccc2cnccc2c1)c1ccccc1 [Compound 5, N-((1S)-2-(dimethylamino)-1-phenyl-ethyl)isoquinoline-6-formamide]	< 100	250 to 1000	acting time compared to K115 [2]: a longer acting time; intraocular pressure-reducing activity compared to K115 [2]: a similar intraocular pressure-reducing activity
O=C(N[C@H](c1ccccc1)[C@@H]1CCNC1)c1ccc2cnccc2c1 [Compound 11a, N—((S)-phenyl-((R)-pyrrolidin-3-yl)methyl)isoquinoline-6-carboxamide]	< 100	250 to 1000	acting time compared to K115 [2]: a longer acting time; intraocular pressure-reducing activity compared to K115 [2]: a similar intraocular pressure-reducing activity; effect on alleviating high intraocular pressure [3]: a good effect on alleviating high intraocular pressure
CN1CC(C(NC(=O)c2ccc3cnccc3c2)c2ccccc2)C1 (stereo not shown) [Compound 10, N-((1-methylazetidin-3-yl)-benzyl)isoquinoline-6-carboxamide]	< 100	250 to 1000	
